Common to all, as to assay type: cell-based, human
Data set [1] deals with miR-130/301 family. Kind of data set: RT-qPCR of miR-130/301 family members after transfection of oligonucleotide inhibitors (specificity), PAECs. The following applies: normoxia and hypoxia. An excerpt: FIGS. 14A-14C show the comparison of the specificity of miR-130/301 oligonucleotide inhibitors. (FIG. 14A) Overview of the miRNA silencing approach using seed-targeting tiny locked nucleic acid (LNA) molecules. Tiny LNAs were designed as fully LNA-modified oligonucleotides complementary to the seed region of the miR-130/301 family. The high binding affinity of tiny LNA enables functional inhibition of co-expressed members of miRNA seed families, which leads to de-repression of target mRNAs. Sequences shown in FIG. 14A are miR-130a (SEQ ID NO: 4), miR-130b (SEQ ID NO: 5), miR-301a (SEQ ID NO: 6), miR-301b (SEQ ID NO: 7) and tiny-LNA-130 ([…] SEQ ID NO: 3). […] In the setting of exposure to hypoxia (0.2% O2; 24 h) or normoxia (21% O2; 24 h), expression levels of miR-130/301 family members in PAECs (FIG. 14B) and PASMCs (FIG. 14C) were quantified after transfection with anti-miR-130a versus control (anti-miR-NC) (left panels) or tiny-LNA-130 versus control (tiny-LNA-NC) (right panels). […]
Cells were homogenized in 2 ml of QiaZol reagent (Qiagen). […] Total RNA concentration was determined using a ND-1000 micro-spectrophotometer (NanoDrop Technologies).
Mature miRNA expression was evaluated using TaqMan MicroRNA Assays (Life Technologies/Applied Biosystems) and the Applied Biosystems 7900HT Fast Real Time PCR device (Life Technologies/Applied Biosystems). […]
(Real-time PCR tracks product formation cycle by cycle.)

Data set [2] relates to PAECs. As to the kind of experiment: Gene/miRNA expression in transfected or drug-treated PAECs (immunoblotting, RT-qPCR). An excerpt: (§1) Pre-miRNA oligonucleotides (pre-miR-130a, pre-miR-204, pre-miR-424, and pre-miR-503 and negative control pre-miR-NC1 and premiR-NC2, Life Technologies), anti-miRNAs oligonucleotides (anti-miR-130a and anti-miR-NC, ThermoScientific), tiny LNA oligonucleotides (tiny-130: 5′-[…]-3′ (SEQ ID NO: 3), and tiny-NC 5′-[…]-3′ (SEQ ID NO: 51), Exiqon), siRNAs (PPARγ and scrambled control, Santa Cruz Biotechnology; HIF-1α, HIF-2α, and scrambled control, Life Technologies) were commercially purchased. PAECs and PASMCs were plated and transfected 24 h later at 70-80% confluence using pre-miRNA (5 nM), anti-miRNA (20 nM), tiny-LNA (20 nM) or siRNA (25 nM) with Lipofectamine 2000 reagent (Life Technologies), according to the manufacturers' instructions.
(§2) Primary human pulmonary arterial endothelial cells (PAECs) were purchased and propagated in EGM-2 cell culture media (Lonza). Experiments were performed at passages 3 to 6. Primary human pulmonary arterial smooth muscle cells (PASMCs) were purchased and propagated in SmGM-2 cell culture media (Lonza). Experiments were performed at passages 3 to 9. HEK293T cells (American Type Culture Collection) were used and cultivated in DMEM containing 10% fetal bovine serum (FBS). Cells were cultured at 37° C. in a humidified 5% CO2 atmosphere. A modular hypoxia chamber at 0.2% oxygen, 94.8% nitrogen and 5% carbon dioxide was used during 24 h for hypoxic conditions. Cultured cells were exposed to recombinant human IL-1α at 10 ng·mL-1 (Peprotech). Recombinant human IL-6 (Peprotech) was used at 100 ng·mL-1. Rosiglitazone (Sigma) was used at 10 μM.
(§3) Mature miRNA expression was evaluated using TaqMan MicroRNA Assays (Life Technologies/Applied Biosystems) and the Applied Biosystems 7900HT Fast Real Time PCR device (Life Technologies/Applied Biosystems). Expression levels were normalized to RNU48 or snoR55 for human or mouse experiments, respectively, and calculated using the comparative Ct method (2^−ΔΔCt) as we previously described (1).
(§4) Messenger RNAs were reverse transcribed using the Multiscript RT kit (Life Technologies) to generate cDNA. cDNA was amplified via fluorescently labeled Taqman primer sets using an Applied Biosystems 7900HT Fast Real Time PCR device, as we previously described (1). Fold-change of RNA species was calculated using the formula (2^−ΔΔCt), normalized to actin expression.
(§5) Cells were lysed in RIPA buffer (Santa Cruz Biotechnology) and the protein concentration determined using a Bradford assay (Biorad). Protein lysate ([…]) were resolved by SDS-PAGE and transferred onto a PVDF membrane (Biorad). Membranes were blocked in 5% non-fat milk in TN buffer (50 mM Tris-HCl pH 7.4, 150 mM NaCl) and incubated in the presence of the primary and then secondary antibodies. After washing in TN buffer containing 0.1% Tween, immunoreactive bands were visualized with the ECL system (Amersham Biosciences). […] Primary antibodies for STAT3 (#9139) and P-STAT3 (Tyr-705; #9145) were purchased from Cell Signaling. Primary antibodies against actin (ab 3280), α-smooth-muscle-actin (ab 32575), CD31 (ab28364), and PCNA (ab 29) were obtained from Abcam. Appropriate secondary antibodies (anti-rabbit and anti-mouse) coupled to HRP were used (Santa Cruz Biotechnology).
Pre-miRNA oligonucleotides (pre-miR-130a and negative control pre-miR-NC1 and premiR-NC2), anti-miRNAs oligonucleotides (anti-miR-130a and anti-miR-NC), and custom designed tiny LNA oligonucleotides (tiny-130: 5′-[…]-3′ (SEQ ID NO: 3), and tiny-NC 5′-[…]-3′ (SEQ ID NO: 51)) were purchased from Life Technologies/Ambion, ThermoScientific/Dharmacon, and Exiqon, respectively. siRNAs for PPARγ and scrambled control were purchased from Santa Cruz Biotechnology. PAEC and PASMC were plated and transfected 24 h later at 70-80% confluence using pre-miRNA (5 nM), anti-miRNA (20 nM), tiny-LNA (20 nM) or siRNA (25 nM) and Lipofectamine 2000 reagent (Life Technologies), according to the manufacturers' instructions. […]

In data set [3] the test system is PASMCs. Kind of data set: Gene/miRNA expression in transfected or drug-treated PASMCs (immunoblotting, RT-qPCR).
Text: as §1, §2, §3, §4, §5
In general terms: Immunoblotting shows a protein as a band on a membrane.

In data set [4] the test system is PASMCs. Kind of data set: Proliferation of PASMCs (cell counting, BrdU incorporation, PCNA).
Text: as §1
Exponentially growing cells were transfected, collected at the indicated times and counted.
as §5

[5] abbreviates: normoxia or hypoxia, compared with anti-miR-130a.
Setting [6] is: tiny-LNA-130: stiffness-mediated up-regulation.
The mark [7] stands for this setting: transcripts 48 h after transfection.

“Also recorded” adds a separate entry of the source.

In the case of “tiny-LNA-130: fully LNA-modified tiny LNA oligonucleotide 5′-ATTGCACT-3′ (SEQ ID NO: 3) complementary to the seed region of the miR-130/301 family (all LNA, backbone and methylation of C not given here)”, the “expression of all miR-130/301 family members” value in data set [1] was “down-regulated; also recorded: effective inhibitors of the entire miR-130/301 family”. The PPARγ expression result in data set [2] (immunoblotting, densitometry) is “increased”. Moreover, in data set [2] (setting [5]), the “downstream gene/subordinate miRNA alterations (PPARγ, apelin, miR-424, miR-503, FGF2)” value is “reversed these downstream gene/subordinate miRNA alterations to a greater extent than inhibition of miR-130a alone”. Also, the “collagen, CTGF, and LOX” value in data set [2] (setting [6]) and in data set [3] (setting [6]) was “reversed” each time. The CCND1 expression result in data set [2] (setting [7]) and in data set [3] (transcripts) was “decreased” in each case. The “CDKN1A, CDKN1B and CDKN2A expression” value in data set [2] (setting [7]) and in data set [3] (transcripts) was “increased” each time. Moreover, the “gene expression changes in VEGFA, EDN1 and NOS3” value in data set [2] (vs tiny-LNA-NC, transcript in hypoxia, protein in normoxia) is given as “reversed these gene expression changes”. For the same substance, the “downstream gene/subordinate miRNA alterations (PPARγ, STAT3, P-STAT3, miR-204)” value in data set [3] (setting [5]) is “reversed such downstream gene/subordinate miRNA alterations to a greater extent than inhibition of miR-130a alone”. In data set [3] (setting [7]), the “NFATC2 and PIM1 expression” value is given as “decreased”. Also, the number of cells entry in data set [4] (counted each day during 3 days) is reported as “greater decrease in the number of cells compared with anti-miR-130a”. The “BrdU incorporation (proliferation)” value in data set [4] (exponentially growing, BrdU pulse 1 h) is on record as “greater decrease in proliferation compared with anti-miR-130a”. The PCNA expression entry in data set [4] (immunoblot 48 hours after transfection) is reported as “more substantial decrease”.

For the origin of these results see patent publication US20170226507A1, “COORDINATE CONTROL OF PATHOGENIC SIGNALING BY THE MIR-130/301 FAMILY IN PULMONARY HYPERTENSION AND FIBROPROLIFERATIVE DISEASES” (The Brigham and Women's Hospital, Inc., priority 2014, published 2017).
